By Kd is commonly meant a measure of binding affinity in units of concentration.

These results are taken from ChEMBL document CHEMBL1177645, “Crystallographic and docking studies of purine nucleoside phosphorylase from Mycobacterium tuberculosis” (Bioorg Med Chem, 2010).

The target in the experiment is T1, Purine nucleoside phosphorylase (Mycobacterium tuberculosis, UniProt P9WP01).
T1 sequence (P9WP01 whole entry): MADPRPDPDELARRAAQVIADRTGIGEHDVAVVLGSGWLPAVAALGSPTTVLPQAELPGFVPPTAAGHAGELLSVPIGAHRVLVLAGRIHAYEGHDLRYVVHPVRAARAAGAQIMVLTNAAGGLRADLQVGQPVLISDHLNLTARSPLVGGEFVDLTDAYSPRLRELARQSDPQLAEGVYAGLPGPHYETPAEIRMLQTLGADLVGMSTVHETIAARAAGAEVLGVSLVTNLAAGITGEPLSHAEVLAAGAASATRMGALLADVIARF
The experiment can be described thus: Binding affinity to Mycobacterium tuberculosis purine nucleoside phosphorylase by spectrophotometric analysis.
For the compound `CSc1nc(N)nc2[nH]cnc12`, the Kd was 316 µM.

Compound `CSc1ncnc2c1ncn2[C@@H]1O[C@H](CO)[C@@H](O)[C@H]1O` showed a Kd of 12.6 µM.

The compound `Nc1nc2c(ncn2COCCO)c(=O)[nH]1` [ACYCLOVIR] showed a Kd of 12.6 µM.

In turn, `Oc1ncnc2[nH]ncc12` [ALLOPURINOL] gave a dissociation constant (Kd) of 1000 µM.

As for `Nc1nc(O)c2ncn(COC(CO)CO)c2n1` [GANCICLOVIR], the Kd is 15.8 µM.

`Sc1ncnc2nc[nH]c12` [MERCAPTOPURINE ANHYDROUS]: the Kd is 79.4 µM.

Consider `O=c1[nH]c(=O)c2c[nH]nc2[nH]1` [OXYPURINOL], for which the Kd is 794 µM.
